According to PubChem BioAssay (NCI):
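48-hour exposure; five concentrations; linearly interpolated endpoints. TGI: total growth inhibition.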

Legend:
Assay in all cases: NCI anticancer screen, dose series, 48 h
[1] = system: PC-3 prostate
[2] = system: MDA-MB-231 breast
[3] = system: HS 578T breast
[4] = system: COLO 205 colon
[5] = system: U251 CNS
[6] = system: A549 NSCLC
[7] = system: SNB-75 CNS
[8] = system: M14 melanoma
[9] = system: MALME-3M melanoma
[10] = system: HCT-15 colon
[11] = system: OVCAR-3 ovarian
[12] = system: SF-539 CNS
[13] = system: SR leukemia
[14] = system: CCRF-CEM leukemia
[15] = system: SK-MEL-2 melanoma
[16] = system: OVCAR-5 ovarian
[17] = system: 786-0 renal
[18] = system: SK-OV-3 ovarian
[19] = system: DU-145 prostate
[20] = system: NCI-H23 lung
[21] = system: HOP-92 NSCLC
[22] = system: T-47D breast
[23] = system: KM12 colon
[24] = system: SNB-19 CNS
[25] = system: SF-295 CNS
[26] = system: CAKI-1 renal
[27] = system: A498 renal
[28] = system: SK-MEL-5 melanoma
[29] = system: NCI-H460 lung
[30] = system: K-562 leukemia
[31] = system: SN12C renal
[32] = system: RPMI-8226 leukemia
[33] = system: SF-268 CNS
[34] = system: EKVX NSCLC
[35] = system: NCI/ADR-RES ovarian
[36] = system: HT29 colon
[37] = system: NCI-H226 lung
[38] = system: HL-60(TB) leukemia
[39] = system: NCI-H522 lung
[40] = system: UACC-257 melanoma
[41] = system: OVCAR-8 ovarian
[42] = system: IGROV1 ovarian
[43] = system: ACHN renal
[44] = system: HCT-116 colon
[45] = system: OVCAR-4 ovarian
[46] = system: MDA-N
[47] = system: UACC-62 melanoma
[48] = system: BT-549 breast
[49] = system: SW-620 colon
[50] = system: MOLT-4 leukemia
[51] = system: MCF7 breast
[52] = system: HOP-62 NSCLC
[53] = system: SK-MEL-28 melanoma
[54] = system: RXF 393 renal
[55] = system: LOX IMVI melanoma
[56] = system: MDA-MB-435
[57] = system: TK-10 renal
[58] = system: UO-31 renal

Compound: CCOC(=O)c1cc(Sc2ccc(N)c(C(=O)OCC)c2)ccc1N
- TGI [1]: > 100 µM
- TGI [2]: > 100 µM
- TGI [3]: > 100 µM
- TGI [4]: > 100 µM
- TGI [5]: > 100 µM
- TGI [6]: > 100 µM
- TGI [7]: > 100 µM
- TGI [8]: > 100 µM
- TGI [9]: > 100 µM
- TGI [10]: > 100 µM
- TGI [11]: > 100 µM
- TGI [12]: > 100 µM
- TGI [13]: > 100 µM
- TGI [14]: > 100 µM
- TGI [15]: > 100 µM
- TGI [16]: > 100 µM
- TGI [17]: > 100 µM
- TGI [18]: > 100 µM
- TGI [19]: > 100 µM
- TGI [20]: > 100 µM
- TGI [21]: > 100 µM
- TGI [22]: > 100 µM
- TGI [23]: > 100 µM
- TGI [24]: > 100 µM
- TGI [25]: > 100 µM
- TGI [26]: > 100 µM
- TGI [27]: 72.1 µM
- TGI [28]: > 100 µM
- TGI [29]: > 100 µM
- TGI [30]: > 100 µM
- TGI [31]: 40.3 µM
- TGI [32]: > 100 µM
- TGI [33]: > 100 µM
- TGI [34]: > 100 µM
- TGI [35]: > 100 µM
- TGI [36]: > 100 µM
- TGI [37]: 44.7 µM
- TGI [38]: > 100 µM
- TGI [39]: > 100 µM
- TGI [40]: > 100 µM
- TGI [41]: > 100 µM
- TGI [42]: > 100 µM
- TGI [43]: > 100 µM
- TGI [44]: > 100 µM
- TGI [45]: > 100 µM
- TGI [46]: > 100 µM
- TGI [47]: > 100 µM
- TGI [48]: > 100 µM
- TGI [49]: > 100 µM
- TGI [50]: > 100 µM
- TGI [51]: > 100 µM
- TGI [52]: 65.9 µM
- TGI [53]: > 100 µM
- TGI [54]: > 100 µM

Compound: CSc1nc2ccccc2c(=O)n1/N=C1\C(=O)N(CN2CCCCC2)c2ccc(Cl)cc21
- TGI [1]: > 100 µM
- TGI [2]: > 100 µM
- TGI [3]: > 100 µM
- TGI [4]: 36 µM
- TGI [5]: > 100 µM
- TGI [6]: > 100 µM
- TGI [7]: 58.4 µM
- TGI [8]: > 100 µM
- TGI [9]: > 100 µM
- TGI [10]: > 100 µM
- TGI [11]: > 100 µM
- TGI [12]: > 100 µM
- TGI [14]: > 100 µM
- TGI [55]: 28.8 µM
- TGI [15]: 54.6 µM
- TGI [16]: > 100 µM
- TGI [17]: 69 µM
- TGI [18]: 94.7 µM
- TGI [19]: 42.7 µM
- TGI [20]: > 100 µM
- TGI [21]: > 100 µM
- TGI [22]: 54.8 µM
- TGI [23]: > 100 µM
- TGI [24]: > 100 µM
- TGI [25]: > 100 µM
- TGI [26]: > 100 µM
- TGI [27]: 96.6 µM
- TGI [28]: > 100 µM
- TGI [29]: > 100 µM
- TGI [30]: > 100 µM
- TGI [31]: > 100 µM
- TGI [33]: > 100 µM
- TGI [34]: > 100 µM
- TGI [35]: > 100 µM
- TGI [36]: > 100 µM
- TGI [37]: > 100 µM
- TGI [38]: 50.1 µM
- TGI [56]: > 100 µM
- TGI [39]: 37.3 µM
- TGI [40]: 54.2 µM
- TGI [41]: > 100 µM
- TGI [42]: 75.1 µM
- TGI [43]: > 100 µM
- TGI [44]: > 100 µM
- TGI [45]: > 100 µM
- TGI [46]: > 100 µM
- TGI [47]: > 100 µM
- TGI [48]: 80.7 µM
- TGI [49]: 52.1 µM
- TGI [57]: > 100 µM
- TGI [50]: 39.9 µM
- TGI [51]: > 100 µM
- TGI [52]: > 100 µM
- TGI [53]: > 100 µM
- TGI [54]: 33.4 µM
- TGI [58]: > 100 µM
